Results reported in paper PMC10221159, “Investigation of N-Acetyltransferase 2-Mediated Drug Interactions of Amifampridine: In Vitro and In Vivo Evidence of Drug Interactions with Acetaminophen” (Pharmaceutics, 2023).
Like-named read-outs stand apart in the source and are kept apart here.

Tests used:
[1] = humans, cited from earlier work
[2] = Tissue distribution of amifampridine and 3-N-acetylamifampridine in rats; assay type: in vivo, rat; details: rat, 60 min after oral amifampridine 2 mg/kg
Description: To investigate the effects of acetaminophen on the tissue distribution of amifampridine and 3-N-acetylamifampridine, rats were sacrificed at 60 min after administration of amifampridine in control and acetaminophen-treated rats (n = 6) as mentioned above, and the tissues, including liver, kidney, heart, lungs, spleen, brain, and muscle tissues, were obtained. Tissue samples were homogenized using a Wheaton^TM Dounce tissue grinder (Wheaton Millipore, Billerica, MA, USA) after adding a three-fold volume of PBS. An amount of 100 μL of tissue homogenates was transferred to the tube and 200 μL of IS solution was then added and vortexed followed by centrifugation at 14,000 rpm for 15 min at 4 °C. The supernatants were transferred to LC vials for quantification. For muscle samples, the supernatant was concentrated using a desiccator and reconstituted with the mobile phase solvent.

[3] = In vivo pharmacokinetic interaction study in rats (plasma); design: species or system rat; details: for AUC(0-inf) / AUC(0-t) / Cmax / MRT / Tmax / half-life / CL renal: male, Sprague-Dawley, rat, po, 2 mg/kg, oral amifampridine 2 mg/kg; for AUC(0-inf) / AUC(0-t) / Cmax / MRT / Tmax / half-life: plasma; for CL renal: urine and plasma, renal clearance
Description: Male Sprague Dawley (SD) rats (7–8 weeks old, 260–330 g) were purchased from Orient Bio, Inc. (Seongnam, Korea). The rats were housed under a light/dark cycle for 12 h and were left for at least a week before the experiment to adapt to the laboratory environment. Water and food were provided ad libitum. The rats were fasted overnight with free access to water prior to pharmacokinetic studies. The protocols for animal experiments were approved in accordance with the Guidelines for Animal Care and Use of Gachon University (approval no.: GIACUC-R2021006; 13 May 2021).
The rats were anesthetized with a mixture of Rompun and Zoletil by intramuscular injection and received an intraperitoneal injection of vehicle (40:60 PEG400:normal saline; n = 8) or 100 mg/kg acetaminophen (n = 8). After 10 min, 2 mg/kg amifampridine (dissolved in saline) was administered orally. Blood samples were collected at 0, 5, 15, 30, 60, 90, 120, 240, and 360 min and centrifuged at 14,000 rpm for 15 min at 4 °C. For analysis of amifampridine and 3-N-acetylamifampridine, 50 μL of plasma samples was mixed with 100 μL IS solution (5 ng/mL ondansetron in acetonitrile) and the mixture was vortexed followed by centrifugation at 14,000 rpm for 15 min at 4 °C. For the analysis of acetaminophen, 200 μL of IS (tolbutamide 200 ng/mL in methanol) was added to the plasma samples which were diluted 10-fold using the blank plasma and then vortexed for one minute. Further, the samples were centrifuged at 14,000 rpm for 15 min at 4 °C. The supernatants were transferred to LC vials for quantification.
Non-compartment analysis (NCA) was performed to calculate the pharmacokinetic parameters for the in vivo study using WinNonlin (Version 8.3. (Pharsight Corporation, Mountain View, CA, USA)). The area under the plasma concentration–time curve from time 0 to infinity (AUCinf) was calculated by the linear trapezoidal method and standard extrapolation using λ, where λ represents the slope of the terminal phase in a semi-log graph for plasma concentration–time profiles. Renal clearance (CLr) was determined by dividing the accumulated amount of drug excreted in the urine by AUCinf.

[4] = design: method as in earlier work; details: metabolite of amifampridine; cited from earlier work
[5] = Urinary excretion of amifampridine and 3-N-acetylamifampridine in rats; assay type: in vivo, rat; details: for amount excreted into the urine for up to 4 h: oral amifampridine 2 mg/kg
Description: Urine samples were collected at intervals of 0–4, 4–8, and 8–24 h after the administration of amifampridine to control and acetaminophen-treated rats (n = 6), as described above, and were diluted 500-fold with potassium phosphate buffer. An amount of 200 μL of IS was then added to the samples and vortexed for a minute. After centrifugation at 14,000 rpm for 15 min at 4 °C, the supernatant was transferred into vials for quantification of amifampridine and 3-N-acetylamifampridine.

NAT2 [6] = molecular target: T1, NAT2 (Homo sapiens, UniProt P11245); experiment: Inhibition of amifampridine acetylation to 3-N-acetylamifampridine by NAT2 inhibitors, human liver S9 fraction; assay type: biochemical; details: amifampridine 50 μM, 15 min
T1 construct: in vitro using S9 fractions obtained from human, rat, and mouse livers; from tissue; host or cells: human liver S9 fraction
T1 sequence (P11245 1-290): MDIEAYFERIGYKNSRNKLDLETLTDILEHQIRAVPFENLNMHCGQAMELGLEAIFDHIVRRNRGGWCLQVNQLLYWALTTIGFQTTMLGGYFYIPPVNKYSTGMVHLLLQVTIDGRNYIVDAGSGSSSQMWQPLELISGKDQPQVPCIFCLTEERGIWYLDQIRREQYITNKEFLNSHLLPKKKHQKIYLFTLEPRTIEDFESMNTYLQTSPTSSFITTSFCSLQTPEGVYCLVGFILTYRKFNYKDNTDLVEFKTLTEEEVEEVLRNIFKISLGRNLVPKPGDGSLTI
Description: Then, the NAT2 inhibitors (final concentrations of 0, 1, 5, 10, 50, 100, 500, 1000, and 5000 μM) and amifampridine (final concentration of 50 μM) were added to the reaction mixture and incubated for 15 min at 37 °C. An amount of 50 μL of the mixture was then transferred into the tube and mixed with 100 μL of IS (5 ng/mL ondansetron in acetonitrile). The mixture was vortexed and centrifuged at 14,000 rpm for 15 min at 4 °C. The supernatant was transferred into vials for HPLC-MS/MS analysis and the concentration of 3-N-acetylamifampridine was determined.

NAT2 [7] = details: previous report; cited from earlier work
[8] = acetaminophen-treated group (100 mg/kg ip)

## CC(=O)Nc1cnccc1N [3-N-acetylamifampridine]
[1]; after administration of amifampridine
  dose excreted via the urine within 24 h: 74.0–81.7%
[1]
  elimination half-life: ~4 h
[2]; Sprague Dawley, brain, acetaminophen 100 mg/kg, read-out: Tissue partition coefficient (Kp), Brain
  Kp at 1 h: 0.2 ± 0.2
[2]; Sprague Dawley, brain, control, read-out: Tissue partition coefficient (Kp), Brain
  Kp at 1 h: 0.2 ± 0.2
[2]; Sprague Dawley, heart, acetaminophen 100 mg/kg, read-out: Tissue partition coefficient (Kp), Heart
  Kp at 1 h: 1.6 ± 0.4
[2]; Sprague Dawley, heart, control, read-out: Tissue partition coefficient (Kp), Heart
  Kp at 1 h: 1.8 ± 0.5
[2]; Sprague Dawley, lungs, acetaminophen 100 mg/kg, read-out: Tissue partition coefficient (Kp), Lungs
  Kp at 1 h: 2.7 ± 0.9
[2]; Sprague Dawley, lungs, control, read-out: Tissue partition coefficient (Kp), Lungs
  Kp at 1 h: 2.9 ± 0.5
[2]; Sprague Dawley, spleen, acetaminophen 100 mg/kg, read-out: Tissue partition coefficient (Kp), Spleen
  Kp at 1 h: 3 ± 0.9
[2]; Sprague Dawley, spleen, control, read-out: Tissue partition coefficient (Kp), Spleen
  Kp at 1 h: 3.3 ± 0.7
[2]; male, Sprague-Dawley, kidney, acetaminophen 100 mg/kg, read-out: Tissue partition coefficient (Kp), Kidney
  Kp at 1 h: 5.1 ± 1.6
[2]; male, Sprague-Dawley, kidney, control, read-out: Tissue partition coefficient (Kp), Kidney
  Kp at 1 h: 16.6 ± 12.4
[2]; male, Sprague-Dawley, liver, acetaminophen 100 mg/kg, read-out: Tissue partition coefficient (Kp), Liver
  Kp at 1 h: 3 ± 0.8
[2]; male, Sprague-Dawley, liver, control, read-out: Tissue partition coefficient (Kp), Liver
  Kp at 1 h: 6.5 ± 5
[2]; male, Sprague-Dawley, muscle, acetaminophen 100 mg/kg, read-out: Tissue partition coefficient (Kp), Muscle
  Kp at 1 h: 0.9 ± 0.3
[2]; male, Sprague-Dawley, muscle, control, read-out: Tissue partition coefficient (Kp), Muscle
  Kp at 1 h: 0.9 ± 0.2
[3]; acetaminophen-treated vs control rats
  change of AUCinf after pre-treatment with acetaminophen: not significantly altered
[3]; after pre-treatment with acetaminophen vs control, p < 0.05
  decrease in Cmax: 27.11%
[3]; after pretreatment with acetaminophen
  decrease of AUCm/AUCp: 65%
[3]; [8]
  AUC(0-inf): 3690 ng·h/mL
  AUC(0-t): 3010 ng·h/mL
  Cmax: 880 ± 260 ng/mL
  MRT: 3.84 h
  Tmax: 1.5 h
  half-life: 2.38 ± 0.91 h
  CL renal: 3.58 ± 0.6 mL/min
[3]; control group
  AUC(0-inf): 3690 ng·h/mL
  AUC(0-t): 3410 ng·h/mL
  Cmax: 1210 ± 240 ng/mL
  MRT: 2.65 h
  Tmax: 1.31 h
  half-life: 1.42 ± 0.36 h
  CL renal: 2.94 ± 1.55 mL/min
[4]
  pharmacological activity: pharmacologically inactive
[5]; control vs acetaminophen-treated rats
  total amount excreted via urine for up to 24 h, difference between groups: not significantly different
[5]; after pre-treatment with acetaminophen
  amount excreted into the urine for up to 4 h: 12.2%
[5]; control rats
  amount excreted into the urine for up to 4 h: 49.9%

## COc1cc(C(C)=O)ccc1O [apocynin]
NAT2 [6]
  IC50: 844 ± 160 µM
NAT2 [7]
  IC50: 690 µM

## CN/C(=N/CCSCc1nc[nH]c1C)NC#N [cimetidine]
NAT2 [6]
  IC50: 2450 ± 258 µM
NAT2 [7]
  IC50: 2060 µM
